Data set [1] concerns C. albicans. The settings on record: C. albicans (73); cited from earlier work.
A further data set relates to C. tropicalis. The settings on record: C. tropicalis (21); cited from earlier work.
A further data set has as its system C. glabrata. The settings on record: C. glabrata (16); cited from earlier work.
The next data set has as its system C. parapsilosis. The settings on record: C. parapsilosis (22); cited from earlier work.
A further data set deals with C. krusei. The conditions noted are these: C. krusei (13); cited from earlier work.
Another data set relates to C. guillermondii. The conditions noted are these: C. guillermondii (5); cited from earlier work.
Data set [2] deals with reconstituted vaginal epithelial cells. Nature of the data set: In vitro permeation test through reconstituted vaginal epithelium, Franz cell. Format: in vitro ADME. The conditions noted are these: reconstituted human vaginal epithelium, phosphate buffer pH 7.4, 32° C. As for the experimental part:
The in vitro dissolution and transdermal permeation tests of sertaconazole nitrate from the cream formulations of Example 1 were evaluated in comparison with a conventional cream formulation of 2% sertaconazole nitrate.
Both tests were carried out with Franz cell-type diffusion systems, with a diffusional area of 2.54 cm^2. 1 ml of cream was placed in the donor compartment and 11 ml of a suitable receptor medium were placed in the receptor compartment. For the dissolution test, a 0.45-μm Millipore membrane of nylon esters was used, and the receptor medium was made up of a mixture of ethanol-water (1:1). Vaginal epithelium was used as permeation membrane and phosphate buffer solution at pH 7.4 was used as the receptor medium.
The 4-cm^2 membranes used in the permeation test were formed by reconstituted vaginal epithelial cells (5-day culture) from transformed cells of human vaginal epithelium on polycarbonate support. These cells were obtained from cell lines of vulvar epidermoid carcinomas. The test temperature was 32° C. for both cases.

Data set [3] relates to C. albicans. The settings on record: against C. albicans; cited from earlier work.

As to `c1ccc(-c2ccc(C(c3ccccc3)n3ccnc3)cc2)cc1` (centres unmarked) [Bifonazole, bifonazole], the “minimum inhibitory concentration (MIC)” value is recorded as 3.6 in the data set with C. albicans [1]; 9.51 in the data set on C. tropicalis; 4.09 in the data set on C. glabrata; 3.76 with C. parapsilosis; 2.20 in the data set with C. krusei; 3.87 in the data set on C. guillermondii.

Turning to `Clc1ccc(COC(Cn2ccnc2)c2ccc(Cl)cc2Cl)cc1` (centres unmarked) [Econazole, econazole], the “minimum inhibitory concentration (MIC)” value is listed as 2.24 in the data set with C. albicans [1]; 3.14 in the data set with C. tropicalis; 2.39 in the data set on C. glabrata; 0.75 in the data set with C. parapsilosis; 0.91 in the data set on C. krusei; 1.11 with C. guillermondii.

Turning to `Clc1ccc(C(Cn2ccnc2)OCc2csc3c(Cl)cccc23)c(Cl)c1` (centres unmarked) [Sertaconazole, sertaconazole], the “absorption (permeation) through the vaginal mucosa” value in data set [2] is on record as “less than 0.1 % of the dose”. For the same compound, the “minimum inhibitory concentration (MIC)” value in the data set with C. albicans [1] is reported as 1.02; in the data set on C. tropicalis it was 1.67; in the data set on C. glabrata it was 0.78; with C. parapsilosis, 0.31; with C. krusei it was 0.38; in the data set with C. guillermondii it was 0.51. For the same compound, in the data set on C. albicans [3], the “fungicide activity compared with imidazole antifungal drugs” value is given as “superior to most imidazole antifungal drugs”.

The record behind these values is patent US20060165803A1, “Pharmaceutical compositions of sertaconazole for vaginal use” (priority 2002, published 2006).
